Test results published in ChEMBL document CHEMBL1150477, “Development of angiotensin II antagonists with equipotent affinity for human AT1 and AT2 receptor subtypes” (Bioorg Med Chem Lett, 1994).
Residue numbers refer to the chain shown, from its start.

Tests used:
[1] = target: T1, Type-2 angiotensin II receptor (Rattus norvegicus, UniProt P35351); assay: […] inhibitory concentration against AT2 receptor of rat adrenal membrane
T1 sequence (P35351 whole entry): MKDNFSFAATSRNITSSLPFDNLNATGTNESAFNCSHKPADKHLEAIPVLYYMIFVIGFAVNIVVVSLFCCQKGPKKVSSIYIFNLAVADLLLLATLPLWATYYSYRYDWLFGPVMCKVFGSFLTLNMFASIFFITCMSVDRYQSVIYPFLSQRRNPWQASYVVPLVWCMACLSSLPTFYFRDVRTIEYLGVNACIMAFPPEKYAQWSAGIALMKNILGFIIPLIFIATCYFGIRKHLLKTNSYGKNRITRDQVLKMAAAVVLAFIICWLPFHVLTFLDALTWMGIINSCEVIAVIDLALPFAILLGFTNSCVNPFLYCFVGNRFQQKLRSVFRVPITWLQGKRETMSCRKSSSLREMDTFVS

[2] = target: T1, Type-2 angiotensin II receptor; assay: […] inhibitory concentration against Angiotensin II, type 2 of rat midbrain membrane
Oryctolagus cuniculus = organism: Oryctolagus cuniculus; assay: Ratio of inhibitory concentration against AT2 receptor of rat midbrain to AT1 receptor of rabbit aorta
Rattus norvegicus [3] = assay: In vivo inhibition of angiotensin II induced pressor response in rats at a dose of 1.0 mg/Kg administered intravenously; format: functional; conditions: iv
[4] = target: Angiotensin II receptor (Homo sapiens) (UniProt P30556+P50052); assay: Ratio of inhibitory concentration against AT2 receptor and AT1 receptor of human adrenal membrane
[5] = target: T2, Angiotensin II receptor (AT-1) type-1 (Rattus norvegicus, UniProt P29089+P25095); assay: […] inhibitory concentration against Angiotensin II receptor, type 1 of rat adrenal membrane
T2 sequence (P29089 whole entry): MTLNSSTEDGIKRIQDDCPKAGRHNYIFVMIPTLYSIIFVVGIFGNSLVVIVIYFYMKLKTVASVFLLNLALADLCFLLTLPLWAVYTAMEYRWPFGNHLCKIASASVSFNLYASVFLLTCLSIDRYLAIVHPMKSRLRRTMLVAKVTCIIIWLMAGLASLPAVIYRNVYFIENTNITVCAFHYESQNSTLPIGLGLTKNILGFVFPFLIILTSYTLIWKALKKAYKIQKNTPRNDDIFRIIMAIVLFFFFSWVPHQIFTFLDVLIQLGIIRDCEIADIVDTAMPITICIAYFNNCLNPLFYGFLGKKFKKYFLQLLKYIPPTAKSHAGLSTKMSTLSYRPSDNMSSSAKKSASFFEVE
T2 sequence (P25095 whole entry): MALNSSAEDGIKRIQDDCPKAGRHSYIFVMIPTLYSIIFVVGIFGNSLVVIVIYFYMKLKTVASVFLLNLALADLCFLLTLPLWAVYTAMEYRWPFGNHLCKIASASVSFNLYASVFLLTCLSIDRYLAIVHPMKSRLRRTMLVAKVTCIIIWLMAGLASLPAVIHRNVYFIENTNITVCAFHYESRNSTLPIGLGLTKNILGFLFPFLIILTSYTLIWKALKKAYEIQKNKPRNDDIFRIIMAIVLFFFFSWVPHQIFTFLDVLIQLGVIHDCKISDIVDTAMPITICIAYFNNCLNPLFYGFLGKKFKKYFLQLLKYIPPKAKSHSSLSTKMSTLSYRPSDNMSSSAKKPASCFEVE

[6] = target: T3, Type-1 angiotensin II receptor (Oryctolagus cuniculus, UniProt P34976); assay: […] inhibitory concentration against Angiotensin II receptor, type 1 of rabbit aorta membrane
T3 sequence (P34976 whole entry): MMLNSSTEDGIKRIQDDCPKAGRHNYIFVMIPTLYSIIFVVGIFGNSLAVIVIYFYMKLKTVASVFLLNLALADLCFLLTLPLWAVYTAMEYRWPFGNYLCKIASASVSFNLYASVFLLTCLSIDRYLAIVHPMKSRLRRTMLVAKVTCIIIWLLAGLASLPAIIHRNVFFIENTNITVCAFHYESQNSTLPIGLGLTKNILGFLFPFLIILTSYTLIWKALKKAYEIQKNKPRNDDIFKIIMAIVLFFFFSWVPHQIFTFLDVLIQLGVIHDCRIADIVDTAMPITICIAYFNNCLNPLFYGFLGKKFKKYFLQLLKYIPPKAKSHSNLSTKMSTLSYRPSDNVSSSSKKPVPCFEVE

[7] = target: Angiotensin II receptor (Rattus norvegicus) (UniProt P29089+P25095+P35351); assay: Ratio of inhibitory concentration against AT2 receptor and AT1 receptor of rat adrenal membrane
[8] = target: T4, Type-2 angiotensin II receptor (Homo sapiens, UniProt P50052); assay: […] inhibitory concentration against AT2 receptor of human adrenal membrane
T4 sequence (P50052 whole entry): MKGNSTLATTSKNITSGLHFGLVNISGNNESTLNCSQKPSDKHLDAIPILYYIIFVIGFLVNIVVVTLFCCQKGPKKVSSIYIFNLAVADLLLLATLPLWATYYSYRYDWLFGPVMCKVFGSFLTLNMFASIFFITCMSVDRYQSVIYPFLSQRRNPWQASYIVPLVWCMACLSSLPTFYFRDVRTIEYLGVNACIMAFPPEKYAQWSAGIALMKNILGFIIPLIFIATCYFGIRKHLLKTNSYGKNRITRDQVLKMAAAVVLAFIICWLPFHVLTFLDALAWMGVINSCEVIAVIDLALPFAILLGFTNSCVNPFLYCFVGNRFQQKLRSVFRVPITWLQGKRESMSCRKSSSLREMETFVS

[9] = target: T5, Type-1 angiotensin II receptor (Homo sapiens, UniProt P30556); assay: […] inhibitory concentration against Angiotensin II receptor, type 1 of human adrenal membrane
T5 sequence (P30556 whole entry): T3 sequence (P34976 whole entry) with M2I, A49V, V254I, V270I, H272R, K311R, S349T, V353A

Canis familiaris [10] = assay: In vivo inhibition of angiotensin II induced pressor response in dogs at a dose of 1.0 mg/Kg after 6 hr administered intravenously; format: functional; conditions: Canis lupus familiaris, iv
Canis familiaris [11] = assay: In vivo inhibition of angiotensin II induced pressor response in dogs at a dose of 1.0 mg/Kg administered intravenously; format: functional; conditions: Canis lupus familiaris, iv
Rattus norvegicus [12] = assay: In vivo inhibition of angiotensin II induced pressor response in rats at a dose of 1.0 mg/Kg after 6 hr administered intravenously; format: functional; conditions: iv

Angiotensin II receptor (Homo sapiens), sequence (P30556 whole entry, looked up, one chain of several): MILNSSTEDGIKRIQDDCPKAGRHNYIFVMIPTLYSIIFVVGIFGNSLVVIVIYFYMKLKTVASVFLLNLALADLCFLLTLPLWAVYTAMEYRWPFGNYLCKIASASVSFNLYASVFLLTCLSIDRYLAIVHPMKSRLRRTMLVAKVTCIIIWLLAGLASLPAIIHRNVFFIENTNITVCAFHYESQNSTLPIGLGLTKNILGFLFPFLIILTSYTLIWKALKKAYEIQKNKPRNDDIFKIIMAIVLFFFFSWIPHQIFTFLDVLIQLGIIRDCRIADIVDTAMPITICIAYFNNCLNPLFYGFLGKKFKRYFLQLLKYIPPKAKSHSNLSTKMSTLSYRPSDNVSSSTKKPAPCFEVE

Structure (SMILES)	IC50 [1]	IC50 [2]	Ratio (Oryctolagus cuniculus)	inhibition in vivo at 1 mg/kg (Rattus norvegicus [3])	Ratio [4]	IC50 [5]	IC50 [6]	Ratio [7]	IC50 [8]	IC50 [9]	inhibition in vivo at 1 mg/kg (Canis familiaris [10])	inhibition in vivo at 1 mg/kg (Canis familiaris [11])	inhibition in vivo at 1 mg/kg (Rattus norvegicus [12])
CCc1nc2ccc(NC(=O)N(C)C(C)C)cc2c(=O)n1Cc1ccc(-c2ccccc2S(=O)(=O)NC(=O)OCCC2CC2)cc1F	0.77 nM	0.39 nM	1.2	91%	0.87	0.5 nM	0.57 nM	1.83	6.2 nM	8.1 nM	48%	89%	62%
CCc1ccc(C(=O)NS(=O)(=O)c2ccccc2-c2ccc(Cn3c(CC)nc4ccc(NC(=O)NC(C)C)cc4c3=O)c(F)c2)c(F)c1	0.34 nM	0.25 nM	1.3	–	2	0.14 nM	0.19 nM	2.5	3.1 nM	1.6 nM	–	–	–
CCCCc1nc2ccc(NC(=O)N(C)C(C)C)cc2c(=O)n1Cc1ccc(-c2ccccc2S(=O)(=O)NC(=O)OCCC(C)C)cc1F	0.22 nM	0.21 nM	1.3	–	4.4	0.14 nM	0.23 nM	1.5	8 nM	1.9 nM	–	–	–
Cc1nc2ccc(NC(=O)N(C)C)cc2c(=O)n1Cc1ccc(-c2ccccc2S(=O)(=O)NC(=O)OCCC2CC2)cc1F	2.4 nM	6.6 nM	3.3	–	0.96	2.3 nM	2.3 nM	1.2	12 nM	12 nM	–	–	–
